Source: US9078442B2, “Herbicidally and fungicidally active 3-phenylisoxazoline-5-carboxamides and 3-phenylisoxazoline-5-thioamides” (BAYER INTELLECTUAL PROPERTY GMBH, priority 2011, dated 2015)

Experiments:
Peronospora parasitica = experiment: In vivo test Peronospora parasitica (downy mildew on cabbage), protective; details: evaluation 5 days after infection
Protocol: In vivo test Peronospora parasitica (downy mildew on cabbage) To prepare an appropriate active compound formulation, the active compound is mixed with acetone/Tween/DMSO and the mixture is diluted with water to the desired concentration. Cabbage plants are cultivated in 50/50 peat/pozzolan soil in small pots at 18-20° C. and sprayed at the cotyledon stage at the respective stated application rates to test for protective activity. Control plants were treated in the same manner, but using an aqueous solution without any active compounds. 24 hours after the spraying, the plants were sprayed with a spore suspension of Peronospora parasitica (50 000 spores/ml). The plants were placed in a cabin at 20° C. in a humid atmosphere for 5 days.

[1] = tested on: Mycosphaerella graminicola; experiment: In vivo test Mycosphaerella graminicola (wheat); details: Mycosphaerella graminicola on wheat, evaluation 21-28 days after inoculation
Protocol: Wheat plants (cultivar: (Scipion) are cultivated in 50/50 peat pozzolan substrate at 12° C. and sprayed at the 1-leaf stage with the active compound preparation as given in Example A. After 24 hours, the plants are sprayed with a spore suspension of Mycosphaerella graminicola (500 000 spores/ml).

Botrytis cinerea = experiment: In vivo test Botrytis cinerea (gray mold on cucumbers); details: Botrytis cinerea on cucumber, evaluation 5-7 days after infection
Protocol: Cucumber plants (Vert petit de Paris) are cultivated in 50/50 peat pozzolan substrate at 20-25° C. and sprayed at the Z16 stage with the active compound preparation given in Example 1. After 24 hours, the upper sides of the leaves of the plants are sprayed with a spore suspension of Botrytis cinerea (150 000 spores/ml). The spores of a 15-day old culture are collected and suspended in a nutrient solution consisting of • 20 g/l of gelatin; • 50 g/l of D-fructose; • 2 g/l of NH4NO3; • 1 g/L of KH2PO4. The inoculated cucumber plants are placed at 15-11° C. (day/night) and at 80% relative atmospheric humidity for 5-7 days.

Alternaria brassicae = experiment: In vivo test Alternaria brassicae (salad radish); parameters: concentration or dose not given beside the values; details: Alternaria brassicae on salad radish, application rate not given, evaluation 6-7 days after inoculation
Protocol: Salad radish (cultivar Pernot) are cultivated in 50/50 peat pozzolan substrate at 18-20° C. and sprayed at the cotyledon stage with the active compound preparation given above. After 24 hours, the plants are sprayed with a spore suspension of Alternaria brassicae (40 000 spores/cm3). The inoculated plants are placed at 18° C. and in a humid atmosphere for 6-7 days. […] At an application rate of g/ha, the following efficacies are found for the following compounds.

| Compound | Activity [%] (efficacy) (Peronospora parasitica; application rate 500 g/ha) | Activity [%] (efficacy) ([1]; application rate 500 g/ha) | also measured |
| --- | --- | --- | --- |
| CCn1cc(CNC(=O)C2(C(F)(F)F)CC(c3cc(Cl)cc(Cl)c3)=NO2)c(C)n1 (centres unmarked) [Example 3.161] | 100% | – | – |
| CC(C)NC(=O)C1(C)CC(c2cc(F)cc(Cl)c2)=NO1 (centres unmarked) [Example 6.190] | – | – | Activity [%] (efficacy) (Peronospora parasitica; application rate 1200 g/ha): 100% |
| CCNC(=O)C1(C)CC(c2cc(C)cc(Cl)c2)=NO1 (centres unmarked) [Example 6.412] | – | 100% | – |
| COC(=O)Cc1cccc(NC(=O)C2(C)CC(c3cc(Cl)cc(Cl)c3)=NO2)c1 (centres unmarked) [Example 1.035] | – | 91% | Activity [%] (efficacy) (Botrytis cinerea; application rate 500 g/ha): 89% |
| CC(C)n1cc(CNC(=O)C2(C)CC(c3cc(Cl)cc(Cl)c3)=NO2)c(Cl)n1 (centres unmarked) [Example 1.343] | 99% | 92% | – |
| CCn1cc(CNC(=O)C2(C(F)(F)F)CC(c3ccc(F)c(Cl)c3)=NO2)c(C)n1 (centres unmarked) [Example 3.170] | 94% | – | – |
| CCC1(C(=O)Nc2cc(C)nn2C)CC(c2cc(Cl)cc(Cl)c2)=NO1 (centres unmarked) [Example 2.003] | – | – | Activity [%] (efficacy) (Peronospora parasitica; application rate 1200 g/ha): 90% |
| CCn1cc(CNC(=O)C2(CC)CC(c3cc(Cl)cc(Cl)c3)=NO2)c(C)n1 (centres unmarked) [Example 2.163] | 100% | 96% | – |
| CC1(C(=O)NCC(F)(F)F)CC(c2cc(Cl)cc(Cl)c2)=NO1 (centres unmarked) [Example 6.377] | – | 100% | Activity [%] (efficacy) (Alternaria brassicae): 77% |
| C#CC(C)NC(=O)C1(C)CC(c2cc(Cl)cc(Cl)c2)=NO1 (single isomer, unassigned) [Example 6.216] | 75% | – | Activity [%] (efficacy) (Alternaria brassicae): 82% |
| CC(C)n1cc(CNC(=O)C2(C)CC(c3cccc(F)c3)=NO2)c(Cl)n1 (centres unmarked) [Example 1.341] | 95% | – | – |
| CCOC(=O)C(C)CNC(=O)C1(C)CC(c2cc(Cl)cc(Cl)c2)=NO1 (centres unmarked) [Example 6.480] | – | 88% | – |
| Cc1cc(Cl)cc(C2=NOC(C)(C(=O)NCC(F)(F)F)C2)c1 (centres unmarked) [Example 6.386] | – | 100% | – |
| CC(C)NC(=O)C1(C2CC2)CC(c2cc(Cl)cc(Cl)c2)=NO1 (centres unmarked) [Example 10.032] | – | – | Activity [%] (efficacy) (Peronospora parasitica; application rate 1200 g/ha): 96% |
| Cc1cc(Cl)cc(C2=NOC(C)(C(=O)NC(C)C)C2)c1 (centres unmarked) [Example 6.192] | 96% | 97% | – |
| Cc1cc(CNC(=O)C2(C)CC(c3cc(Cl)cc(Cl)c3)=NO2)no1 (centres unmarked) [Example 1.421] | – | 87% | – |
| CC1(C(=O)NC2CC2)CC(c2cc(Cl)cc(Cl)c2)=NO1 (centres unmarked) [Example 6.054] | – | 100% | Activity [%] (efficacy) (Alternaria brassicae): 94% |
| CC1(C(=O)NCC2CCCO2)CC(c2cc(Cl)cc(Cl)c2)=NO1 (mixture of isomers) [Example 6.470] | 71% | 100% | – |
| CC1(C(=O)NCCc2ccccn2)CC(c2cc(Cl)cc(Cl)c2)=NO1 (centres unmarked) [Example 1.676] | 85% | – | – |

| Compound | Activity [%] (efficacy) (Peronospora parasitica; application rate 500 g/ha) | Activity [%] (efficacy) ([1]; application rate 500 g/ha) | also measured |
| --- | --- | --- | --- |
| CC1(C(=O)NCc2ccccc2C(=O)O)CC(c2cc(Cl)cc(Cl)c2)=NO1 (centres unmarked) [Example 1.315] | – | 100% | – |
| CNC(=O)C1(C)CC(c2cc(Br)cc(Br)c2)=NO1 (centres unmarked) [Example 6.022] | – | 98% | – |
| CC1(C(=O)NCc2ccncc2)CC(c2cc(Cl)cc(Cl)c2)=NO1 (centres unmarked) [Example 1.458] | – | – | Activity [%] (efficacy) (Peronospora parasitica; application rate 1200 g/ha): 81% |
| O=C(NC1CC1)C1(C(F)(F)F)CC(c2cc(Cl)cc(Cl)c2)=NO1 (centres unmarked) [Example 8.052] | – | – | Activity [%] (efficacy) (Peronospora parasitica; application rate 1200 g/ha): 100% |
| CC1(C(=O)Nc2cccc(CC(=O)O)c2)CC(c2cc(Cl)cc(Cl)c2)=NO1 (centres unmarked) [Example 1.036] | – | 73% | – |
| COc1cc(Cl)cc(C2=NOC(C)(C(=O)NC(C)C)C2)c1 (centres unmarked) [Example 6.191] | – | – | Activity [%] (efficacy) (Botrytis cinerea; application rate 1200 g/ha): 100% |
| CCOC(=O)CCNC(=O)C1(C)CC(c2cc(Cl)cc(Cl)c2)=NO1 (centres unmarked) [Example 6.566] | – | 98% | – |
| CC1(C(=O)NCc2nc(C3CC3)no2)CC(c2cc(Cl)cc(Cl)c2)=NO1 (centres unmarked) [Example 1.352] | 83% | – | – |
| CCOP(=O)(CNC(=O)C1(C)CC(c2cc(Cl)cc(Cl)c2)=NO1)OCC (centres unmarked) [Example 6.433] | 100% | – | – |
| CCCn1cc(CNC(=O)C2(CC)CC(c3cc(Cl)cc(Cl)c3)=NO2)c(C)n1 (centres unmarked) [Example 2.257] | 99% | 79% | – |
| Cc1n[nH]cc1CNC(=O)C1(C)CC(c2cc(F)cc(F)c2)=NO1 (centres unmarked) [Example 1.363] | 71% | – | – |
| CCn1cc(CNC(=O)C2(C)CC(c3cc(C(F)(F)F)cc(C(F)(F)F)c3)=NO2)c(C)n1 (centres unmarked) [Example 1.224] | 99% | 95% | – |
| CC(C)(C)OC(=O)CCNC(=O)C1(C)CC(c2cc(Cl)cc(Cl)c2)=NO1 (centres unmarked) [Example 6.656] | 92% | 98% | – |
| Cc1cc(CNC(=O)C2(C)CC(c3cc(F)cc(F)c3)=NO2)n(C)n1 (centres unmarked) [Example 1.120] | 99% | – | – |
| Cn1nccc1CNC(=O)C1(C)CC(c2cc(Cl)cc(Cl)c2)=NO1 (centres unmarked) [Example 1.291] | – | – | Activity [%] (efficacy) (Peronospora parasitica; application rate 1200 g/ha): 88% |
| CC1(C(=O)NCCCn2cccn2)CC(c2cc(Cl)cc(Cl)c2)=NO1 (centres unmarked) [Example 1.903] | 85% | 97% | – |
| CCC1(C(=O)NC(C)C)CC(c2cc(Cl)cc(Cl)c2)=NO1 (centres unmarked) [Example 7.161] | – | – | Activity [%] (efficacy) ([1]; application rate 1200 g/ha): 85%; Activity [%] (efficacy) (Peronospora parasitica; application rate 1200 g/ha): 97%; Activity [%] (efficacy) (Botrytis cinerea; application rate 1200 g/ha): 100% |
| CC1(C(=O)NCc2nc(C(F)(F)F)cs2)CC(c2cc(Cl)cc(Cl)c2)=NO1 (centres unmarked) [Example 1.379] | 96% | – | – |
| Cc1c(CNC(=O)C2(C)CC(c3cc(Cl)cc(Cl)c3)=NO2)cnn1C (centres unmarked) [Example 1.138] | 98% | 75% | – |

| Compound | Activity [%] (efficacy) (Peronospora parasitica; application rate 500 g/ha) | Activity [%] (efficacy) ([1]; application rate 500 g/ha) | also measured |
| --- | --- | --- | --- |
| CC(C)n1cc(CNC(=O)C2(C)CC(c3cc(F)cc(F)c3)=NO2)c(Cl)n1 (centres unmarked) [Example 1.340] | 97% | 88% | – |
| CC1(C(=O)NCC2CCCCC2)CC(c2cc(Cl)cc(Cl)c2)=NO1 (centres unmarked) [Example 6.430] | – | 81% | – |
| CCn1cc(CNC(=O)C2(C)CC(c3cc(Cl)cc(Cl)c3)=NO2)c(Cl)n1 (centres unmarked) [Example 1.339] | 100% | 85% | – |
| CCC1(C(=O)NCC(F)(F)F)CC(c2cc(Cl)cc(Cl)c2)=NO1 (centres unmarked) [Example 7.359] | – | 100% | Activity [%] (efficacy) (Alternaria brassicae): 86% |
| COC(=O)c1ccc(NC(=O)C2(C)CC(c3cc(Cl)cc(Cl)c3)=NO2)cc1 (centres unmarked) [Example 1.060] | – | – | Activity [%] (efficacy) (Botrytis cinerea; application rate 500 g/ha): 100% |
| CC1(C(=O)NC2CC2)CC(c2cc(Cl)cc(Br)c2)=NO1 (centres unmarked) [Example 6.064] | – | 100% | Activity [%] (efficacy) (Alternaria brassicae): 91% |
| CCOCCCNC(=O)C1(C)CC(c2cc(Cl)cc(Cl)c2)=NO1 (centres unmarked) [Example 6.681] | – | – | Activity [%] (efficacy) (Peronospora parasitica; application rate 1200 g/ha): 97% |
| CCOC(=O)Cc1ccc(NC(=O)C2(C)CC(c3cc(Cl)cc(Cl)c3)=NO2)cc1 (centres unmarked) [Example 1.057] | – | 91% | – |
| CC1(C(=O)Nc2ccc(C(=O)O)cc2)CC(c2cc(Cl)cc(Cl)c2)=NO1 (centres unmarked) [Example 1.064] | 95% | 75% | Activity [%] (efficacy) (Botrytis cinerea; application rate 500 g/ha): 100% |
| COCC#CC(C)(C)NC(=O)C1(C)CC(c2cc(Cl)cc(Cl)c2)=NO1 (centres unmarked) [Example 6.115] | 100% | – | – |
| CC1(C(=O)NCc2ncccn2)CC(c2cc(Cl)cc(Cl)c2)=NO1 (centres unmarked) [Example 1.459] | – | 100% | – |
| CC(C)NC(=O)C1(C)CC(c2cc(Br)cc(C(F)(F)F)c2)=NO1 (centres unmarked) [Example 6.184] | – | 100% | – |
| CCn1cc(CNC(=O)C2(C)CC(c3cc(C)cc(Cl)c3)=NO2)c(C)n1 (centres unmarked) [Example 1.181] | 100% | 85% | Activity [%] (efficacy) (Botrytis cinerea; application rate 500 g/ha): 70% |
| CNC(=O)C1(C(F)(F)F)CC(c2cc(Cl)cc(Cl)c2)=NO1 (centres unmarked) [Example 8.025] | 100% | – | – |
| Cc1cc(Cl)cc(C2=NOC(C)(C(=O)NC3CC3)C2)c1 (centres unmarked) [Example 6.072] | – | 98% | – |
| Cc1nn(C)c(C)c1CNC(=O)C1(C)CC(c2cc(Cl)cc(Cl)c2)=NO1 (centres unmarked) [Example 1.108] | 100% | – | – |
| Cc1nn(C)cc1CNC(=O)C1(C)CC(c2cc(Cl)cc(Cl)c2)=NO1 (centres unmarked) [Example 1.116] | 100% | – | – |
| CCn1cc(NC(=O)C2(C)CC(c3cc(Cl)cc(Cl)c3)=NO2)c(C)n1 (centres unmarked) [Example 1.017] | – | 88% | – |
| CCn1cc(CNC(=O)C2(COC)CC(c3cc(Cl)cc(Cl)c3)=NO2)c(C)n1 (centres unmarked) [Example 5.029] | 87% | – | – |
